Experimental data as given in paper PMC10353549 (ACS Pharmacology & Translational Science, 2023).
Where “and” joins values, the source holds several entries; their conditions need not be identical. Equal values may be shown once. Read-outs that look alike come from different tables or passages of the source. Marks after values point to notes of the source that are not given here. Where a SMILES comes first, the peptide text is derived from it. [ ]: non-standard residue; d: D form. The star is where a group is joined. 1Nal = N[C@@H](Cc1cccc2ccccc12)C(=O)O; Nicotinoyl(6-F) = O=C(c1ccc(F)nc1)*; Cha = N[C@@H](CC1CCCCC1)C(=O)O; NMeS = CN[C@@H](CO)C(=O)O; hSer = N[C@@H](CCO)C(=O)O; Nle = CCCC[C@H](N)C(=O)O; Octanoyl = CCCCCCCC(=O)*; Abu = CC[C@H](N)C(=O)O; Dap = NC[C@H](N)C(=O)O; Inp = O=C(O)C1CCNCC1

What was measured:
[1] = Chemical stability in buffer; format: physicochemical; conditions: for chemical stability in buffer: 37 °C, over 24 h
GHSR = GHSR (Homo sapiens, UniProt Q92847); test: cell-based
[2] = Human liver S9 fraction stability; format: in vitro ADME; conditions: for half-life at 3 μM: human, pooled human liver S9 fraction
[3] = target: T1, growth hormone secretagogue receptor 1a (GHSR) (Homo sapiens, UniProt Q92847); test: biochemical
[4] = human serum; cited from earlier work
[5] = target: T1, growth hormone secretagogue receptor 1a (GHSR); conditions: read-out: IC50 (GHSR affinity); previous work; cited from earlier work
Target sequence in this assay (Q92847 whole entry, species assumed): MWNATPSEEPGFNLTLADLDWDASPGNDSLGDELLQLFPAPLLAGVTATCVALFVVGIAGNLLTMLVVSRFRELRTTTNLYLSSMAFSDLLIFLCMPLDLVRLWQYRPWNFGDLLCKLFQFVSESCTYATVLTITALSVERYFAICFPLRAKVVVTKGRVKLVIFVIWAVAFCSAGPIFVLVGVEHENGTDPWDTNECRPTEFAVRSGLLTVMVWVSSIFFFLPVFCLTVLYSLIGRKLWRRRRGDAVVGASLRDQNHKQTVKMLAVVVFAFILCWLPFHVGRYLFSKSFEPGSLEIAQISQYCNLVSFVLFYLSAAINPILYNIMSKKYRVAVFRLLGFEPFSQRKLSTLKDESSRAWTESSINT

Human serum stability = format: in vitro ADME
[6] = human serum from human male AB plasma; conditions: 37 °C, up to 24 h
[7] = target: growth hormone secretagogue receptor 1a, eYFP tagged (GHSR-eYFP) (UniProt Q92847); test: radioligand binding
[8] = pH 7.4, S9 t1/2, pooled human liver S9 fraction 1 mg/mL, peptide 3 μM, 37 °C, over 4 h
[9] = human liver S9 fraction, over 4 h

Sequence of GHSR (Q92847 whole entry, species assumed): as above
Sequence of growth hormone secretagogue receptor 1a, eYFP tagged (GHSR-eYFP) (Q92847 whole entry): as the sequence (Q92847 whole entry, species assumed) above

| Compound | half-life at 3 μM [2, 8] [h] | IC50 [3] [nM] | also measured |
| --- | --- | --- | --- |
| CC(C)C[C@H](NC(=O)[C@H](Cc1cccc2ccccc12)NC(=O)[C@H](CNC(=O)c1ccc(F)nc1)NC(=O)[C@H](CO)NC(=O)C1CCNCC1)C(=O)N[C@@H](CO)C(=O)N1CCC[C@H]1C(=O)N[C@H](C(N)=O)[C@@H](C)O [compound 1, [Inp^1,Dpr^3(6-FN),1Nal^4,Thr^8]ghrelin(1–8) amide] (H-[Inp]S[Dap](Nicotinoyl(6-F))[1Nal]LSPT-NH2) | 1.1 | 0.09 | chemical stability in buffer [1]: chemically stable; remaining at 24 h, 1 mM ([1]; phosphate-buffered saline, pH 7.4): 100%; EC50 (GHSR): 8 nM; time after which peptide was completely degraded in human liver S9 fraction ([2]; human liver S9 fraction, 37 °C): 4 h; S9 t1/2 ([2]; pooled human liver S9 fraction 1 mg/mL, peptide 3 μM, 37 °C, over 4 h): 1.08 h; Serum t1/2 [4]: 4.7 ^a h; IC50 [5]: 0.11 nM |
| CCCCCCCC(=O)NC[C@H](NC(=O)[C@H](CO)NC(=O)CN)C(=O)N[C@@H](Cc1ccccc1)C(=O)N[C@@H](CC(C)C)C(=O)N[C@@H](CO)C(=O)N1CCC[C@H]1C(=O)N[C@@H](CCC(=O)O)C(=O)O [compound 2, [Dpr^3(n-octanoyl)]ghrelin(1–8)] (H-GS[Dap](Octanoyl)FLSPE-OH) |  |  | chemical stability in buffer [1]: chemically stable; Serum t1/2 (Human serum stability; 25% human serum in PBS pH 7.4, 37 °C, peptide 1 mM, over 24 h): 2.0 h; time after which peptide was completely degraded in human serum (Human serum stability; human serum, 37 °C): 6 h; half-life at 3 μM ([2]; pH 7.4): 0.57 h |
| CC(C)C[C@@H](NC(=O)[C@H](Cc1cccc2ccccc12)NC(=O)[C@H](CNC(=O)c1ccc(F)nc1)NC(=O)[C@H](CO)NC(=O)C1CCNCC1)C(=O)N[C@@H](CO)C(=O)N1CCC[C@H]1C(=O)N[C@H](C(N)=O)[C@@H](C)O [compound 9, Inp-S-Dpr(6-FN)-1Nal-lSPT-NH2] (H-[Inp]S[Dap](Nicotinoyl(6-F))[1Nal][dL]SPT-NH2) | > 4 | 56.5 ± 6.5 | stability in human serum (Human serum stability; human serum, over 24 h): completely stable; stability in human liver S9 fraction [2, 9]: completely stable |
| CC(C)C[C@H](NC(=O)[C@H](Cc1cccc2ccccc12)NC(=O)[C@H](CNC(=O)c1ccc(F)nc1)NC(=O)[C@H](CO)NC(=O)C1CCNCC1)C(=O)N[C@H](CO)C(=O)N1CCC[C@H]1C(=O)N[C@H](C(N)=O)[C@@H](C)O [compound 10, Inp-S-Dpr(6-FN)-1Nal-LsPT-NH2] (H-[Inp]S[Dap](Nicotinoyl(6-F))[1Nal]L[dS]PT-NH2) | > 4 | 3.55 ± 0.25 |  |
| CC(C)C[C@H](NC(=O)[C@H](Cc1cccc2ccccc12)NC(=O)[C@H](CNC(=O)c1ccc(F)nc1)NC(=O)[C@H](CO)NC(=O)C1CCNCC1)C(=O)N[C@@H](C(=O)N1CCC[C@H]1C(=O)N[C@H](C(N)=O)[C@@H](C)O)[C@H](C)O [compound 12, Inp-S-Dpr(6-FN)-1Nal-LtPT-NH2] (H-[Inp]S[Dap](Nicotinoyl(6-F))[1Nal]L[dT]PT-NH2) | > 4 | 2.52 ± 0.32 |  |
| CCCC[C@H](NC(=O)[C@H](Cc1cccc2ccccc12)NC(=O)[C@H](CNC(=O)c1ccc(F)nc1)NC(=O)[C@H](CO)NC(=O)C1CCNCC1)C(=O)N[C@@H](CO)C(=O)N1CCC[C@H]1C(=O)N[C@H](C(N)=O)[C@@H](C)O [compound 13, Inp-S-Dpr(6-FN)-1Nal-Nle-SPT-NH2] (H-[Inp]S[Dap](Nicotinoyl(6-F))[1Nal][Nle]SPT-NH2) | 0.55 | 1.5 ± 0.27 |  |
| C[C@@H](O)[C@H](NC(=O)[C@@H]1CCCN1C(=O)[C@H](CO)NC(=O)[C@H](CC1CCCCC1)NC(=O)[C@H](Cc1cccc2ccccc12)NC(=O)[C@H](CNC(=O)c1ccc(F)nc1)NC(=O)[C@H](CO)NC(=O)C1CCNCC1)C(N)=O [compound 14, Inp-S-Dpr(6-FN)-1Nal-Cha-SPT-NH2] (H-[Inp]S[Dap](Nicotinoyl(6-F))[1Nal][Cha]SPT-NH2) | 1.18 | 1.88 ± 0.67 |  |
| CC(C)C[C@H](NC(=O)[C@H](Cc1cccc2ccccc12)NC(=O)[C@H](CNC(=O)c1ccc(F)nc1)NC(=O)[C@H](CO)NC(=O)C1CCNCC1)C(=O)N[C@@H](CS)C(=O)N1CCC[C@H]1C(=O)N[C@H](C(N)=O)[C@@H](C)O [compound 15, Inp-S-Dpr(6-FN)-1Nal-LCPT-NH2] (H-[Inp]S[Dap](Nicotinoyl(6-F))[1Nal]LCPT-NH2) | 0.95 | 7.15 ± 0.18 |  |
| CC(C)C[C@H](NC(=O)[C@H](Cc1cccc2ccccc12)NC(=O)[C@H](CNC(=O)c1ccc(F)nc1)NC(=O)[C@H](CO)NC(=O)C1CCNCC1)C(=O)N[C@H](C(=O)N1CCC[C@H]1C(=O)N[C@H](C(N)=O)[C@@H](C)O)[C@@H](C)O [compound 16, Inp-S-Dpr(6-FN)-1Nal-LTPT-NH2] (H-[Inp]S[Dap](Nicotinoyl(6-F))[1Nal]LTPT-NH2) | 1.25 | 0.62 ± 0.1 |  |
| CC(C)C[C@H](NC(=O)[C@H](Cc1cccc2ccccc12)NC(=O)[C@H](CNC(=O)c1ccc(F)nc1)NC(=O)[C@H](CO)NC(=O)C1CCNCC1)C(=O)N[C@@H](CCO)C(=O)N1CCC[C@H]1C(=O)N[C@H](C(N)=O)[C@@H](C)O [compound 17, Inp-S-Dpr(6-FN)-1Nal-L-Hse-PT-NH2] (H-[Inp]S[Dap](Nicotinoyl(6-F))[1Nal]L[hSer]PT-NH2) | 1.4 | 1.43 ± 0.08 |  |
| CC(C)C[C@H](NC(=O)[C@H](Cc1cccc2ccccc12)NC(=O)[C@H](CNC(=O)c1ccc(F)nc1)NC(=O)[C@H](CO)NC(=O)C1CCNCC1)C(=O)N[C@@H](CC(N)=O)C(=O)N1CCC[C@H]1C(=O)N[C@H](C(N)=O)[C@@H](C)O [compound 18, Inp-S-Dpr(6-FN)-1Nal-LNPT-NH2] (H-[Inp]S[Dap](Nicotinoyl(6-F))[1Nal]LNPT-NH2) | > 4 | 1.9 ± 0.56 |  |
| CC(C)C[C@H](NC(=O)[C@H](Cc1cccc2ccccc12)NC(=O)[C@H](CNC(=O)c1ccc(F)nc1)NC(=O)[C@H](CO)NC(=O)C1CCNCC1)C(=O)N[C@@H](CCC(N)=O)C(=O)N1CCC[C@H]1C(=O)N[C@H](C(N)=O)[C@@H](C)O [compound 19, Inp-S-Dpr(6-FN)-1Nal-LQPT-NH2] (H-[Inp]S[Dap](Nicotinoyl(6-F))[1Nal]LQPT-NH2) | 2.03 | 1.21 ± 0.12 |  |
| CC[C@H](NC(=O)[C@H](CC(C)C)NC(=O)[C@H](Cc1cccc2ccccc12)NC(=O)[C@H](CNC(=O)c1ccc(F)nc1)NC(=O)[C@H](CO)NC(=O)C1CCNCC1)C(=O)N1CCC[C@H]1C(=O)N[C@H](C(N)=O)[C@@H](C)O [compound 20, Inp-S-Dpr(6-FN)-1Nal-L-Abu-PT-NH2] (H-[Inp]S[Dap](Nicotinoyl(6-F))[1Nal]L[Abu]PT-NH2) | 0.46 | 2.54 ± 0.65 | EC50 (GHSR): 30 nM |
| CC(C)C[C@H](NC(=O)[C@H](Cc1cccc2ccccc12)NC(=O)[C@H](CNC(=O)c1ccc(F)nc1)NC(=O)[C@H](CO)NC(=O)C1CCNCC1)C(=O)N(C)[C@@H](CO)C(=O)N1CCC[C@H]1C(=O)N[C@H](C(N)=O)[C@@H](C)O [compound 22, Inp-S-Dpr(6-FN)-1Nal-L-S(N-Me)-PT-NH2] (H-[Inp]S[Dap](Nicotinoyl(6-F))[1Nal]L[NMeS]PT-NH2) | > 4 | 1.32 ± 0.58 | EC50 (GHSR): 119 nM; stability in human serum (Human serum stability; human serum, over 24 h): stable; stability in human liver S9 fraction [2, 9]: stable |
| Inp-S-Dpr(6-FN)-1Nal-L-Dpr-PT-NH2 |  |  | not cleaved [6]: full stability over 24 h |
| Inp-S-Dpr(6-FN)-1Nal-L-S(N-Me)-PT-NH2 |  |  | not cleaved [6]: stable; serum t1/2 >24 h |
| Inp-S-Dpr(6-FN)-1Nal-LSPT-NH2 |  |  | cleaved bond [6]: Leu5-Ser6, first_seen, 30 min; fragment found [6]: 4; 1Nal-L-OH and 5; Inp-S-Dpr(6-FNA)-OH |
| Inp-S-Dpr(6-FN)-1Nal-lSPT-NH2 |  |  | not cleaved [6]: completely stable; serum t1/2 >24 h |
| acylated human ghrelin(1–28) (ligand) |  |  | IC50 [7]: 2.48 nM |
| ghrelin(1–8) analogue 11, Inp-S-Dpr(6-FN)-1Nal-lsPT-NH2 (peptide) |  |  | IC50 [7]: 11.5 nM |
| ghrelin(1–8) analogue 21, Inp-S-Dpr(6-FN)-1Nal-L-Dpr-PT-NH2 (peptide) |  |  | IC50 [7]: 0.32 nM |
| ghrelin(1–8) analogue 23, Inp-S-Dpr(6-FN)-1Nal-β-homoL-SPT-NH2 (peptide) |  |  | IC50 [7]: 2.11 nM |
